The text below walks through data of ChEMBL document CHEMBL1201862, “PubChem BioAssay data set” (2004).

Common to all, as to assay: NCI anticancer screen, dose series, 48 h
Test [1] deals with SK-MEL-28.
The subject of test [2] is HOP-92.
For test [3], the system named is RXF 393.
For test [4], the system named is NCI-H522.
The test system of test [5] is OVCAR-5.
Test [6] relates to HL-60.
Test [7] has as its system HT-29.
Test [8] concerns UACC-257.
Test [9] relates to IGROV-1.
Test [10] relates to SK-MEL-2.
The test system of test [11] is SW-620.
Test [12] deals with K562.
In test [13] the test system is KM12.
The subject of test [14] is UACC-62.
Test [15] relates to SF-539.
In test [16] the test system is A549.
The subject of test [17] is HOP-62.
For test [18], the system named is CCRF-CEM.
The subject of test [19] is SNB-75.
In test [20] the test system is HCT-116.

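1) Cells in 96-well plates. 2) Compound, 48 h, 5 concentrations. 3) Linear interpolation between surrounding doses. 4) Unreached endpoint = highest concentration. At the GI50, growth is halved.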 The source made the active and inactive calls. Cut-off read from the data, not from the text of the source: active = GI50 up to about 1.1 µM and inactive = higher. A value given as a limit tells only on which side of the number the result lay.

In the case of `CC(=O)O[C@H]1CC[C@H]2[C@@H]3CCC(C(C)=O)[C@H](C(=O)O)[C@H]3CC[C@]12C` (some centres not stated), the GI50 in [1], in test [2], in test [3], in test [4], in test [5] and in [6] was > 100 µM (inactive) throughout. Also, the GI50 in test [7], in test [8], in test [9], in test [10], in test [11] and in test [12] was > 100 µM (inactive) throughout. Moreover, the GI50 in test [13], in test [14], in test [15], in [16], in test [17] and in test [18] was > 100 µM (inactive) each time.

Turning to `COc1cc(OC)cc(Oc2nc3cc(F)c(F)cc3nc2-c2ccccc2)c1`, the GI50 in [1], in test [2], in [3], in test [4], in test [5] and in test [6] was > 100 µM (inactive) in each case. Besides, the GI50 in test [7], in test [8], in test [9], in test [10], in test [11] and in [19] was > 100 µM (inactive) in each case. Moreover, the GI50 in test [20], in test [13], in test [14], in test [15], in [16] and in test [17] was > 100 µM (inactive) in each case. Besides, the GI50 in test [18] is > 100 µM (inactive).

Turning to `N#Cc1c(N)c2c(c(-c3ccccc3)c1-c1ccccc1)C(=O)N(NC(=S)Nc1ccccc1)C2=O`, the GI50 in test [1] is 47.2 µM (inactive); in test [2], 34.2 µM (inactive); in [3], 16.9 µM (inactive); in [4], 57.3 µM (inactive); in test [5], 35.2 µM (inactive); in [6], 37.9 µM (inactive). For the same compound, the GI50 was > 100 µM (inactive) in test [8]; 43 µM (inactive) in test [9]; > 100 µM (inactive) in [10]; > 100 µM (inactive) in [11]; 65.2 µM (inactive) in test [19]; 56.1 µM (inactive) in [20]. Besides, the GI50 in [12] is 88.7 µM (inactive); in test [13], 75.7 µM (inactive); in test [14], 73.8 µM (inactive); in test [15], 89.9 µM (inactive); in [16], 64.1 µM (inactive); in test [18], 51.8 µM (inactive).

Consider `CC(=O)OCCOCn1cc(C=O)c2ccccc21`, for which the GI50 in test [1] was > 100 µM (inactive); in test [2], > 100 µM (inactive); in test [3] it was > 100 µM (inactive); in test [4] it was 49.3 µM (inactive); in test [5] it was 67.5 µM (inactive); in test [6], > 100 µM (inactive). Further, the GI50 in [7], in test [8], in test [9], in [10], in test [11] and in [19] was > 100 µM (inactive) throughout. For the same compound, the GI50 in test [20], in test [12], in test [13], in [14], in test [15] and in test [16] was > 100 µM (inactive) each time. The GI50 in test [17] and in test [18] was > 100 µM (inactive) each time.

As to `Clc1cc(N/N=C(\c2ccccc2)c2ccccn2)ncn1`, the GI50 is 1.44 µM (inactive) in test [1]; 2.44 µM (inactive) in test [2]; 5.08 µM (inactive) in [3]; < 0.01 µM (active) in test [4]; 0.361 µM (active) in test [5]; < 0.01 µM (active) in test [7]. Also, the GI50 is 0.0274 µM (active) in [8]; 0.0308 µM (active) in test [9]; 4.78 µM (inactive) in test [10]; 0.0238 µM (active) in test [11]; 20.7 µM (inactive) in test [19]; 0.0277 µM (active) in [20]. In addition, the GI50 in test [12] was 0.0644 µM (active); in test [13] it was 1.22 µM (inactive); in [14], 0.308 µM (active); in test [15], 0.197 µM (active); in test [16], 0.55 µM (active); in test [17] it was 0.256 µM (active). For the same compound, the GI50 in test [18] was < 0.01 µM (active).

Regarding `O=S1(=O)OCCOS(=O)(=O)C1Cc1cccc2ccccc12`, the GI50 in [1] is 2.69 µM (inactive); in test [2], 17.9 µM (inactive); in [3] it was 3.37 µM (inactive); in [4], 18.9 µM (inactive); in test [5] it was 24.3 µM (inactive); in test [6] it was 11.6 µM (inactive). Further, the GI50 in test [7] is 25.5 µM (inactive); in [8], 14.1 µM (inactive); in test [9] it was 13.9 µM (inactive); in [10], 51.3 µM (inactive); in test [11] it was 30.6 µM (inactive); in test [19], 29.6 µM (inactive). Further, the GI50 in [20] is 20.3 µM (inactive); in test [12], 15.6 µM (inactive); in test [14], 22.2 µM (inactive); in test [15], 22.3 µM (inactive); in test [16], 35.2 µM (inactive); in test [17], 23.9 µM (inactive). Besides, the GI50 in test [18] was 14.2 µM (inactive).

In the case of `CSCCCNC(=O)c1csc(-c2csc(CCNC(=O)CNC(=O)CNC(=O)CNC(=O)OC(C)(C)C)n2)n1`, the GI50 in test [1], in test [2], in test [3], in test [4], in test [5] and in [7] was > 100 µM (inactive) in each case. Besides, the GI50 in test [8], in test [9], in test [10], in [11], in test [19] and in test [20] was > 100 µM (inactive) each time. For the same compound, the GI50 in test [12], in test [13], in test [14], in [15], in test [16] and in [17] was > 100 µM (inactive) throughout. Further, the GI50 in test [18] is > 100 µM (inactive).
